Laboratory results taken from patent US11020399B2, “Intermediates useful in the synthesis of compounds as modulators of protein kinases” (Rhizen Pharmaceuticals SA, priority 2011, dated 2021).

Legend:
Type in all cases: biochemical
PI3kβ = PI3kβ (Homo sapiens, UniProt P42338); test: Fluorescent (HTRF) determination of PI3 kinase enzyme activity, PI3Kβ
Source text: (§1) Assay 1: Fluorescent Determination of PI3Kinase Kinase Enzyme Activity
(§2) Phosphoinositide 3 kinases (PI3K) belong to a class of lipid kinases that play a critical role in the regulation of several key cellular processes. The PI3K are capable of phosphorylating the 3-hydroxy position of phosphoinositols thereby generating second messengers involved in downstream signalling events. The homogenous time resolved fluorescence (HTRF) assay allows detection of 3,4,5-triphosphate (PIP3) formed as a result of phosphorylation of phosphotidylinositol 4,5-biphosphate (PIP2) by PI3K isoforms such as α, β, γ or δ. PI3K isoform activity for a, p, y or 8 was determined using a PI3K human HTRF™ Assay Kit (Millipore, Billerica, Mass.) with modifications. All incubations were carried out at room temperature. Briefly, 0.5 μl of 40× inhibitor (in 100% DMSO) or 100% DMSO were added to each well of a 384-well black plate (Greiner Bio-One, Monroe, N.C.) containing 14.5 μl IX reaction buffer /PIP2 (10 mM MgCl2, 5 mM DTT, 1.38 μM PIP2) mix with or without enzyme and incubated for 10 min. After the initial incubation, 5 μl/well of 400 μM ATP was added and incubated for an additional 30 minutes. Reaction was terminated by adding 5 μl/well stop solution (Millipore, Billerica, Mass.). Five microliters of detection mix (Millipore, Billerica, Mass.) were then added to each well and was incubated for 6-18 h in the dark. HRTF ratio was measured on a microplate reader (BMG Labtech., Germany) at an excitation wavelength of 337 nm and emission wavelengths of 665 and 620 nm with an integration time of 400 μsec.
(§3) Data were analyzed using Graphpad Prism (Graphpad software; San Diego Calif.) for IC50 determination. Examples 1-59 were tested at 1 uM for Pi3kα & Pi3k β and at 0.3 uM for γ and δ. Examples 60-137 were tested at 1 uM for Pi3kα & Pi3k β and at 0.1 uM for γ and δ. Percent inhibition was calculated based on the values for the blank and enzyme controls. The results are as provided in Table 2 (wherein D=0 to 25%; C=>25 to 50%; B=>50 to 75%; A=>75 to 100%; +++++=≤50 nM; ++++=>50 to ≤100 nM; +++=>100 to ≤300 nM; ++=>300 to ≤500 nM; +=>500 nM)

PI3kα = PI3kα (Homo sapiens, UniProt P42336); test: Fluorescent (HTRF) determination of PI3 kinase enzyme activity, PI3Kα
Chain of PI3kα (P42336 whole entry): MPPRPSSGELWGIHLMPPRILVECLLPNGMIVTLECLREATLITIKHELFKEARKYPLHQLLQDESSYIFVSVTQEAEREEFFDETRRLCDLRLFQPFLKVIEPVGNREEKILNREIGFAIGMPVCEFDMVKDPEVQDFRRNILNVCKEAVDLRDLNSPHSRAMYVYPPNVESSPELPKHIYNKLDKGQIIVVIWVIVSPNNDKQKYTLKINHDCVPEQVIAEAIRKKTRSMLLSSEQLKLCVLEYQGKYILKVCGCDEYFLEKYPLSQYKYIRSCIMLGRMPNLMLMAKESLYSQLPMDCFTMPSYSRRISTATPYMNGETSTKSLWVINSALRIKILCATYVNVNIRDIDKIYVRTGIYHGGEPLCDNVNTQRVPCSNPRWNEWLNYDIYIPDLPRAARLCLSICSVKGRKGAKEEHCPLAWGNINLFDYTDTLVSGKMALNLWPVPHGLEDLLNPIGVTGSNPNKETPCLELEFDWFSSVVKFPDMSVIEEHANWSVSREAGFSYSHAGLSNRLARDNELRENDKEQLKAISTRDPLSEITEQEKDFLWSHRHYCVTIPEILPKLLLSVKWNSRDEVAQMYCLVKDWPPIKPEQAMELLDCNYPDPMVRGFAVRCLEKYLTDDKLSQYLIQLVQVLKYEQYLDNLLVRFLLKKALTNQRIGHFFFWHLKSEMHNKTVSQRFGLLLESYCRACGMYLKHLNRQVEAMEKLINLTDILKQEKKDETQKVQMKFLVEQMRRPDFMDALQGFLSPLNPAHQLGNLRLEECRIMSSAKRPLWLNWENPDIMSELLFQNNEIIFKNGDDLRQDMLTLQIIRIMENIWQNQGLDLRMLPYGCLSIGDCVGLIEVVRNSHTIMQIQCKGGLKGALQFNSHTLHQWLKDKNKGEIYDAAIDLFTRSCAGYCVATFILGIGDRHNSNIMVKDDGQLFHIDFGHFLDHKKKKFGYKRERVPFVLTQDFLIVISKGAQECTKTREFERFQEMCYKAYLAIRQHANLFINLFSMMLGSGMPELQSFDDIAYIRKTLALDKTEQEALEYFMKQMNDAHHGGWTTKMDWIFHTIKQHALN
Chain of PI3kα (P27986 whole entry partner): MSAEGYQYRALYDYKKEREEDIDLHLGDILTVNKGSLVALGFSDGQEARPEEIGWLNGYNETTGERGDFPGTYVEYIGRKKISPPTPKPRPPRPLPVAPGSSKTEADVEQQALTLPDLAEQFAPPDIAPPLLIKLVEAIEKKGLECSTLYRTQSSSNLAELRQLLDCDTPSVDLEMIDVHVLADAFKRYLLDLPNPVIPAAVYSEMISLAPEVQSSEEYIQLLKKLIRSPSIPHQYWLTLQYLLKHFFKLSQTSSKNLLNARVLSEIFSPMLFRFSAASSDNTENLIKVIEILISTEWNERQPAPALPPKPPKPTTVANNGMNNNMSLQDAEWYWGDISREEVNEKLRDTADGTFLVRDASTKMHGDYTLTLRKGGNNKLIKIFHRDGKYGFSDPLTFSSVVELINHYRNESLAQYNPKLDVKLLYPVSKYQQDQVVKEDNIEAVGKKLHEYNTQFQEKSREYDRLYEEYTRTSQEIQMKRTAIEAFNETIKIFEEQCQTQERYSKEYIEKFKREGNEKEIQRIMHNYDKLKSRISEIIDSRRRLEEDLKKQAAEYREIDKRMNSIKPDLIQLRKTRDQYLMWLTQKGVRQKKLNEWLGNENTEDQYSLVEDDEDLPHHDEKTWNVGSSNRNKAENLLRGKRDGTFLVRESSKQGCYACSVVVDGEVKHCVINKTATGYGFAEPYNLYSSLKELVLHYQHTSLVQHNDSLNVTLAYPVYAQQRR
Source text: as §1, §2, §3

PI3kγ = PI3kγ (Homo sapiens, UniProt P48736); test: Fluorescent (HTRF) determination of PI3 kinase enzyme activity, PI3Kγ; conditions: for inhibition at 0.1 µM / % inhibition (PI3kγ) 100 nM: 100 nM (Examples 60-137); for % inhibition (PI3kγ) 100 nM: 0.1 µM; for inhibition at 0.3 µM: 300 nM (Examples 1-59)
Chain of PI3kγ (P48736 whole entry): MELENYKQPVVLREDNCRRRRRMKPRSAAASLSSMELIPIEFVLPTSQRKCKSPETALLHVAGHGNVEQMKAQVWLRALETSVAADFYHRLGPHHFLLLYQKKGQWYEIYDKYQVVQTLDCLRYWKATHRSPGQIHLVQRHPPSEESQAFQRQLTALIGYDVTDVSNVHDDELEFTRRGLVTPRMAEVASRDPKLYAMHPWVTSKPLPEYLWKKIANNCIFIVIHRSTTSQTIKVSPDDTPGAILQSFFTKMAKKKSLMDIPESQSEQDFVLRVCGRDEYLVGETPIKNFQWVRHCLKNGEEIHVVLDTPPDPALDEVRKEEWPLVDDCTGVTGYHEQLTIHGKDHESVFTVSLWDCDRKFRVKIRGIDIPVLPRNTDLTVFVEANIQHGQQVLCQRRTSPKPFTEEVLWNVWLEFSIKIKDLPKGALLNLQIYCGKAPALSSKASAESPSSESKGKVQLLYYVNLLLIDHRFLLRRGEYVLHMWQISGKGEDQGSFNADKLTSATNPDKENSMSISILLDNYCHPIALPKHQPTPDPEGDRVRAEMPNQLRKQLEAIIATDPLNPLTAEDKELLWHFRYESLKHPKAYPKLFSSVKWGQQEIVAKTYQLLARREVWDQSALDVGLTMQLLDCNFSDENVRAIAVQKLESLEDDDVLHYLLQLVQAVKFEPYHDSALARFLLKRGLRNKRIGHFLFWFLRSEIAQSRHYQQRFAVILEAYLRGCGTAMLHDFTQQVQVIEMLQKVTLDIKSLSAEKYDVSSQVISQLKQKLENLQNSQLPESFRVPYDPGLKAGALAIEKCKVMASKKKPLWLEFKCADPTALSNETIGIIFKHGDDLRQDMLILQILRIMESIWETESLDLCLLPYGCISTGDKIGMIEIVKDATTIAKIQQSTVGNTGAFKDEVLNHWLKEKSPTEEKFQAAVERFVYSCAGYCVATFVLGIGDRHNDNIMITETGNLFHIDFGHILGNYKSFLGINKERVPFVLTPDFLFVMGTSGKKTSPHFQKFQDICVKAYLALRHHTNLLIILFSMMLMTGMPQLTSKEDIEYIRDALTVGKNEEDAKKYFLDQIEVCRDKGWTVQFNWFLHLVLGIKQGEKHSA
Source text: as §1, §2, §3

PI3kδ = PI3kδ (Homo sapiens, UniProt O00329); test: Fluorescent (HTRF) determination of PI3 kinase enzyme activity, PI3Kδ; conditions: for inhibition at 0.1 µM / % inhibition (PI3kδ) 100 nM: 100 nM (Examples 60-137); for inhibition at 0.3 µM: 300 nM (Examples 1-59)
Chain of PI3kδ (O00329 whole entry): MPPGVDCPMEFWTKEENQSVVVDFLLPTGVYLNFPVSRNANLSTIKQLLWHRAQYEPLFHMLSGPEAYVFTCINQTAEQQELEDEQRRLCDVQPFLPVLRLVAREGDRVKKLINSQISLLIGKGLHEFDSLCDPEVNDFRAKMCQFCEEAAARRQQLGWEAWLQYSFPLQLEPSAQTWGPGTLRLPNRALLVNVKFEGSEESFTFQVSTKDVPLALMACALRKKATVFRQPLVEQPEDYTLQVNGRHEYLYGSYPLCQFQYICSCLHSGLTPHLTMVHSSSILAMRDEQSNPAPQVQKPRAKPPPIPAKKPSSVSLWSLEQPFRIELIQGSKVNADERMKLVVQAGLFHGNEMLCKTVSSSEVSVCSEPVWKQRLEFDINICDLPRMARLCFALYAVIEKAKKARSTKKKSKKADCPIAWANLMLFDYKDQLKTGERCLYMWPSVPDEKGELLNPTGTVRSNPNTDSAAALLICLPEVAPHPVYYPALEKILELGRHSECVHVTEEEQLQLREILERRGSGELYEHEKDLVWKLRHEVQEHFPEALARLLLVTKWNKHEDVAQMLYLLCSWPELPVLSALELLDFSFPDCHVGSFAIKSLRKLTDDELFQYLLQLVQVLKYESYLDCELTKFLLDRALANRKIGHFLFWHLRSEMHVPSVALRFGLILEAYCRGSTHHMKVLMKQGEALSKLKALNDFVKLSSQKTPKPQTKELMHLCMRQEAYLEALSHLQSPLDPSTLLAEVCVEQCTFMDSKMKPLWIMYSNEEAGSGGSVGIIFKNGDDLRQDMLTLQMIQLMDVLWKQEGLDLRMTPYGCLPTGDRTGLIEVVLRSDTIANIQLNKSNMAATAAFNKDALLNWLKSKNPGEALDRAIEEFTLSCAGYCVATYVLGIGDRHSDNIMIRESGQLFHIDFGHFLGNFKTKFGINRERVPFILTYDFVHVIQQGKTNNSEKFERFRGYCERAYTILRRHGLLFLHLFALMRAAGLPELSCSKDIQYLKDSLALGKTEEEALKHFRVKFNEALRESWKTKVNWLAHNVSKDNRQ
Chain of PI3kδ (P27986 whole entry partner): as the sequence (P27986 whole entry partner) above
Source text: as §1, §2, §3

Chain of PI3kβ (P42338 whole entry): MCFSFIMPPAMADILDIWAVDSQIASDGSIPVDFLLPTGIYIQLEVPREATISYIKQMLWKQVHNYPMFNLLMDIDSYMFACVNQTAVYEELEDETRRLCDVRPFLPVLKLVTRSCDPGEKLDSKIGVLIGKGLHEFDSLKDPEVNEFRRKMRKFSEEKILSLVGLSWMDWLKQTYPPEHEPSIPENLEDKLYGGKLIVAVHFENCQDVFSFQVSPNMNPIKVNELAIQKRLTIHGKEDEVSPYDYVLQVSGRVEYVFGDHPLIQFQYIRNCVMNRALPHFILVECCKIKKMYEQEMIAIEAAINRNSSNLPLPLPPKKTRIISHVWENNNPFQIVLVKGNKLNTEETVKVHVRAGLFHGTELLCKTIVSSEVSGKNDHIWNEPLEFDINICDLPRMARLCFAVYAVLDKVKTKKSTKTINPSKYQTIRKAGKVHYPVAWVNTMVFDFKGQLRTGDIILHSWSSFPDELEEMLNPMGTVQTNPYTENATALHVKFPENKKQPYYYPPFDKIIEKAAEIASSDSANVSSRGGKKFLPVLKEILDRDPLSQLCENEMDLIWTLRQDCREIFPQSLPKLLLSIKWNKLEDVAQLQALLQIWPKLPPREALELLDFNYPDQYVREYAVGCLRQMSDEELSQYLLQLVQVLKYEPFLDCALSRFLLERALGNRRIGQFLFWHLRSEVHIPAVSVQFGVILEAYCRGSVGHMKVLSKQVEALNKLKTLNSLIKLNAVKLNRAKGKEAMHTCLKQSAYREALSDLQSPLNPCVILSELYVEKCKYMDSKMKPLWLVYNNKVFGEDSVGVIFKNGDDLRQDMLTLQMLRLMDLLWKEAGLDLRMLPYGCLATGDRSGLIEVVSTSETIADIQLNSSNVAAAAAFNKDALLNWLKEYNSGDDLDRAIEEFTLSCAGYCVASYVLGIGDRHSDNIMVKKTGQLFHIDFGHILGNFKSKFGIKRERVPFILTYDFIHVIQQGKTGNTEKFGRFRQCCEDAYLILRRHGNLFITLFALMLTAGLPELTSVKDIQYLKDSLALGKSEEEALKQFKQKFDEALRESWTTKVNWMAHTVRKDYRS
Chain of PI3kβ (P27986 whole entry partner): as the sequence (P27986 whole entry partner) above

| inhibition at 1 µM (PI3kβ) [%] | % inhibition (PI3kα) 1 uM (PI3kα) | IC50 (PI3kγ) [nM] | IC50 (PI3kδ) [nM] | inhibition at 1 µM (PI3kα) [%] | inhibition at 0.3 µM (PI3kγ) [%] | SMILES | further results |
| --- | --- | --- | --- | --- | --- | --- | --- |
| 25 to 50 | C (C=>25 to 50%) |  |  |  |  | CC(C)Oc1ccc(-c2nn(C(C)c3oc4cccc(F)c4c(=O)c3-c3ccc(F)cc3)c3ncnc(N)c23)cc1F (racemic) [Example 94, (S)/(R)-2-(1-(4-amino-3-(3-fluoro-4-isopropoxyphenyl)-1H-pyrazolo[3,4-d]pyrimidin-1-yl)ethyl)-5-fluoro-3-(4-fluorophenyl)-4H-chromen-4-one] | inhibition at 0.1 µM (PI3kγ): 25 to 50%; inhibition at 0.1 µM (PI3kδ): 25 to 50% |
|  | B (B=>50 to 75%) | 50 to 100 | 100 to 300 |  |  | CC(C)Oc1ccc(-c2nn(C(C)c3oc4cccc(F)c4c(=O)c3-c3ccccc3)c3ncnc(N)c23)cc1F (racemic) [Example 100, (S)/(R)-2-(1-(4-amino-3-(3-fluoro-4-isopropoxyphenyl)-1H-pyrazolo[3,4-d]pyrimidin-1-yl)ethyl)-5-fluoro-3-phenyl-4H-chromen-4-one] | % inhibition (PI3kβ) 1 uM (PI3kβ): B (B=>50 to 75%); inhibition at 0.1 µM (PI3kγ): 50 to 75%; inhibition at 0.1 µM (PI3kδ): 25 to 50% |
| 50 to 75 | C (C=>25 to 50%) |  |  |  |  | CC(c1oc2cccc(F)c2c(=O)c1-c1ccccc1)n1nc(-c2ccc(OC(F)F)c(F)c2)c2c(N)ncnc21 (racemic) [Example 102, (S)/(R)-2-(1-(4-amino-3-(4-(difluoromethoxy)-3-fluorophenyl)-1H-pyrazolo[3,4-d]pyrimidin-1-yl)ethyl)-5-fluoro-3-phenyl-4H-chromen-4-one] | inhibition at 0.1 µM (PI3kγ): 25 to 50%; inhibition at 0.1 µM (PI3kδ): 0 to 25% |
|  | D (D=0 to 25%) |  |  |  |  | CC(c1oc2cccc(F)c2c(=O)c1-c1cccc(F)c1)n1nc(-c2ccc(N3CCOCC3)c(Cl)c2)c2c(N)ncnc21 (racemic) [Example 126, (S)/(R)-2-(1-(4-amino-3-(3-chloro-4-morpholinophenyl)-1H-pyrazolo[3,4-d]pyrimidin-1-yl)ethyl)-5-fluoro-3-(3-fluorophenyl)-4H-chromen-4-one] | % inhibition (PI3kβ) 1 uM (PI3kβ): C (C=>25 to 50%); % inhibition (PI3kγ) 100 nM (PI3kγ): D (D=0 to 25%); % inhibition (PI3kδ) 100 nM (PI3kδ): B (B=>50 to 75%) |
| 25 to 50 |  |  |  | 25 to 50 |  | CC(c1oc2cccc(F)c2c(=O)c1-c1ccc(F)cc1)n1nc(-c2ccc(OC(F)F)c(F)c2)c2c(N)ncnc21 (single isomer, unassigned) [Example 97] | inhibition at 0.1 µM (PI3kγ): 25 to 50%; inhibition at 0.1 µM (PI3kδ): 25 to 50% |
| 25 to 50 |  | 100 to 300 |  | 50 to 75 |  | CC(C)Oc1ccc(-c2nn(C(C)c3oc4cccc(F)c4c(=O)c3-c3ccccc3)c3ncnc(N)c23)cc1F (single isomer, unassigned) [Example 101] | inhibition at 0.1 µM (PI3kγ): 50 to 75%; inhibition at 0.1 µM (PI3kδ): 0 to 25% |
| 50 to 75 | C (C=>25 to 50%) | ≤ 50 | ≤ 50 |  |  | CC(C)Oc1ccc(-c2nn(C(C)c3oc4cccc(F)c4c(=O)c3-c3cccc(F)c3)c3ncnc(N)c23)cc1F (single isomer, unassigned; (+)) [Example 7, (+)-2-(1-(4-amino-3-(3-fluoro-4-isopropoxyphenyl)-1H-pyrazolo[3,4-d]pyrimidin-1-yl)ethyl)-5-fluoro-3-(3-fluorophenyl)-4H-chromen-4-one] |  |
|  | D (D=0 to 25%) | ≤ 50 | ≤ 50 |  |  | CC(C)Oc1ccc(-c2nn(C(C)c3oc4cccc(F)c4c(=O)c3-c3cccc(F)c3)c3ncnc(N)c23)cc1F (single isomer, unassigned; (-)) [Example 8, (−)-2-(1-(4-amino-3-(3-fluoro-4-isopropoxyphenyl)-1H-pyrazolo[3,4-d]pyrimidin-1-yl)ethyl)-5-fluoro-3-(3-fluorophenyl)-4H-chromen-4-one] | IC50 (PI3kβ): 300 to 500 nM; % inhibition (PI3kβ) 1 uM (PI3kβ): B (B=>50 to 75%) |
|  | C (C=>25 to 50%) |  |  |  |  | Cc1cc(-c2nn(C(C)c3oc4cccc(F)c4c(=O)c3-c3cccc(F)c3)c3ncnc(N)c23)ccc1OC(C)C (single isomer, unassigned; (-)) [Example 115, (−) 2-(1-(4-amino-3-(4-isopropoxy-3-methylphenyl)-1H-pyrazolo[3,4-d]pyrimidin-1-yl)ethyl)-5-fluoro-3-(3-fluorophenyl)-4H-chromen-4-one] | % inhibition (PI3kβ) 1 uM (PI3kβ): D (D=0 to 25%); % inhibition (PI3kγ) 100 nM (PI3kγ): C (C=>25 to 50%); % inhibition (PI3kδ) 100 nM (PI3kδ; 0.1 µM): C (C=>25 to 50%) |
| 0 to 25 |  | 100 to 300 | 50 to 100 | 25 to 50 | 50 to 75 | CC(C)Oc1ccc(-c2nn(Cc3oc4cccc(F)c4c(=O)c3-c3cccc(F)c3)c3ncnc(N)c23)cc1F [Example 3, 2-((4-amino-3-(3-fluoro-4-isopropoxyphenyl)-1H-pyrazolo[3,4-d]pyrimidin-1-yl)methyl)-5-fluoro-3-(3-fluorophenyl)-4H-chromen-4-one] | inhibition at 0.3 µM (PI3kδ): 50 to 75% |
| 25 to 50 |  | 50 to 100 | ≤ 50 | 0 to 25 | 75 to 100 | CC(C)Oc1ccc(-c2nn(C(C)c3oc4cccc(F)c4c(=O)c3-c3cccc(F)c3)c3ncnc(N)c23)cc1F (centres unmarked) [Example 6, 2-(1-(4-amino-3-(3-fluoro-4-isopropoxyphenyl)-1H-pyrazolo[3,4-d]pyrimidin-1-yl)ethyl)-5-fluoro-3-(3-fluorophenyl)-4H-chromen-4-one] | IC50 (PI3kα; numeric values): > 10000 nM; inhibition at 0.3 µM (PI3kδ): 75 to 100% |
| 25 to 50 |  | 50 to 100 | ≤ 50 | 25 to 50 | 75 to 100 | Cc1n[nH]c2cc(-c3nn(C(C)c4oc5cccc(F)c5c(=O)c4-c4cccc(F)c4)c4ncnc(N)c34)ccc12 (centres unmarked) [Example 9, 2-(1-(4-amino-3-(3-methyl-1H-indazol-6-yl)-1H-pyrazolo[3,4-d]pyrimidin-1-yl)ethyl)-5-fluoro-3-(3-fluorophenyl)-4H-chromen-4-one] | inhibition at 0.3 µM (PI3kδ): 75 to 100% |
| 25 to 50 |  | ≤ 50 | ≤ 50 | 0 to 25 |  | Cc1n[nH]c2cc(-c3nn([C@@H](C)c4oc5cccc(F)c5c(=O)c4-c4cccc(F)c4)c4ncnc(N)c34)ccc12 [Example 9a, (+)-2-(1-(4-amino-3-(3-methyl-1H-indazol-6-yl)-1H-pyrazolo[3,4-d]pyrimidin-1-yl)ethyl)-5-fluoro-3-(3-fluorophenyl)-4H-chromen-4-one] |  |
| 25 to 50 |  | 300 to 500 | 300 to 500 | 0 to 25 |  | Cc1n[nH]c2cc(-c3nn([C@H](C)c4oc5cccc(F)c5c(=O)c4-c4cccc(F)c4)c4ncnc(N)c34)ccc12 [Example 9b, (−)-2-(1-(4-amino-3-(3-methyl-1H-indazol-6-yl)-1H-pyrazolo[3,4-d]pyrimidin-1-yl)ethyl)-5-fluoro-3-(3-fluorophenyl)-4H-chromen-4-one] |  |
| 0 to 25 |  | 100 to 300 |  | 25 to 50 | 75 to 100 | CC(c1oc2cccc(F)c2c(=O)c1-c1cccc(F)c1)n1nc(-c2cn[nH]c2)c2c(N)ncnc21 (centres unmarked) [Example 10, 2-(1-(4-amino-3-(1H-pyrazol-4-yl)-1H-pyrazolo[3,4-d]pyrimidin-1-yl)ethyl)-5-fluoro-3-(3-fluorophenyl)-4H-chromen-4-one] | inhibition at 0.3 µM (PI3kδ): 25 to 50% |
| 25 to 50 |  | ≤ 50 |  | 0 to 25 | 75 to 100 | CC(c1oc2cccc(F)c2c(=O)c1-c1cccc(F)c1)n1nc(-c2ccc(N3CCOCC3)c(F)c2)c2c(N)ncnc21 (centres unmarked) [Example 25, 2-(1-(4-amino-3-(3-fluoro-4-morpholinophenyl)-1H-pyrazolo[3,4-d]pyrimidin-1-yl)ethyl)-5-fluoro-3-(3-fluorophenyl)-4H-chromen-4-one] |  |
| 25 to 50 |  | 50 to 100 |  | 0 to 25 | 75 to 100 | Cc1nc2cc(-c3nn(C(C)c4oc5cccc(F)c5c(=O)c4-c4cccc(F)c4)c4ncnc(N)c34)ccc2[nH]1 (centres unmarked) [Example 26, 2-(1-(4-amino-3-(2-methyl-1H-benzo[d]imidazol-5-yl)-1H-pyrazolo[3,4-d]pyrimidin-1-yl)ethyl)-5-fluoro-3-(3-fluorophenyl)-4H-chromen-4-one] |  |
